For orientation: IC50 means the point on the concentration scale where inhibition reaches its midpoint.

In this assay the target is T1, human mAChR M4 (Homo sapiens, UniProt P08173).
T1 construct: expressed in transfected cells; host or cells: CHO-K1 (ATCC), co-transfected with chimeric G protein Gqi5
T1 sequence (P08173 1-479): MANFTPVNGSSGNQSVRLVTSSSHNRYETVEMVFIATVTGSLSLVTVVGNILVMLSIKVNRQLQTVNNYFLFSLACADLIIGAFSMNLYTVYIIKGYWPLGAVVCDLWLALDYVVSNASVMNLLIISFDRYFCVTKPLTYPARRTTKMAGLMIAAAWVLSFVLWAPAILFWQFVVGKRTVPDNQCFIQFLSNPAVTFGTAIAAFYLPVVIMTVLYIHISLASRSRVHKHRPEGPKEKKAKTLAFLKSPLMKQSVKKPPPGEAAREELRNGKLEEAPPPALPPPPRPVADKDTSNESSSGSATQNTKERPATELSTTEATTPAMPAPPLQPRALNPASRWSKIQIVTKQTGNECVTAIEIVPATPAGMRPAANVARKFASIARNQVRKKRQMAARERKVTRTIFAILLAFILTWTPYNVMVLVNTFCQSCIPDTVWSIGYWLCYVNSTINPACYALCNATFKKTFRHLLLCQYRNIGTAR
Nature of the assay: mAChR M4 cell-based functional assay (calcium flux, antagonism of EC80 acetylcholine response, M4/Gqi5/CHO-K1 cells). Conditions: for IC50: decrease of the response elicited by an EC80 concentration of acetylcholine, CHO-K1 cells, Gqi5. A digest of the protocol:
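CHO-K1 cells stably expressing human M4 with chimeric Gqi5, loaded with Fluo-4 AM; calcium flux read on FDSS. Compounds (10-point, 1:3 curves) added first, then EC20 acetylcholine at 143 s and EC80 at 268 s. IC50 from decrease of EC80 acetylcholine response, four-parameter logistic fit.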
A general note: A change in cytosolic calcium serves as a functional read-out for many receptors and channels.

In the case of `[2H]C([2H])([C@H]1CCOC(C)(C)C1)N1C[C@H]2C[C@H](Nc3ccc(-c4cccnc4C(F)(F)F)nn3)C[C@H]2C1` (single isomer, unassigned) [Compound 61], the IC50 is 3.1 nM.

Turning to `[2H]C([2H])([C@@H]1CCOC(C)(C)C1)N1C[C@H]2C[C@H](Nc3ccc(-c4cccnc4C(F)(F)F)nn3)C[C@H]2C1` [Compound 62, (3aR,5s,6aS)-2-(((R)-2,2-dimethyltetrahydro-2H-pyran-4-yl)methyl-d2)-N-(6-(2-(trifluoromethyl)pyridin-3-yl)pyridazin-3-yl)octahydrocyclopenta[c]pyrrol-5-amine], the IC50 was determined as 1.1 nM. Besides, the remaining activity at 30 µM (CHO-K1, % ACh maximum at 30 μM, read-out: Human M4 Emin) stood at 4%.

For the origin of these results see patent US20240109873A1, “ANTAGONISTS OF THE MUSCARINIC ACETYLCHOLINE RECEPTOR M4” (Vanderbilt University, priority 2020, published 2024).
